Reference: patent US10738028B2, “Spiro three-membered ring, spiro five-membered ring peptide deformylase inhibitor and use thereof in antibacteria and anti-tumor” (priority 2016, dated 2020)

Columns and labels:
Assay type in all cases: cell-based
[1] = test system: Enterococcus faecalis (EFA); test: MIC, two-fold agar dilution (CLSI), clinical isolates
Procedure, shortened: (§1)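 Following the American Clinical and Laboratory Standards Institute procedure, agar two-fold dilution served to determine minimum inhibitory concentrations.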

[2] = test system: Enterococcus faecium (EFM); test: as above
Procedure, shortened: as §1

[3] = test system: Escherichia coli (including ESBLs, non-ESBLs); test: as above
Procedure, shortened: as §1

[4] = test system: Moraxella catarrhalis (BCA); test: as above
Procedure, shortened: as §1

[5] = test system: Streptococcus pneoumoniae (SPN); test: as above
Procedure, shortened: as §1

[6] = test system: methicillin-resistant Staphylococcus aureus (MRSA); test: as above
Procedure, shortened: as §1

[7] = test system: methicillin-resistant Staphylococcus epidermidis (MRSE); test: as above
Procedure, shortened: as §1

[8] = test system: methicillin-sensitive Staphylococcus aureus (MSSA); test: as above
Procedure, shortened: as §1

[9] = test system: methicillin-sensitive Staphylococcus epidermidis (MSSE); test: as above
Procedure, shortened: as §1

[10] = test system: HCT-116 colorectal cancer cell line; test: CCK-8 proliferation inhibition; conditions: Homo sapiens, HCT-116, 72 h, concentration of 30 μM; 72 hours; CCK-8; read-out: HCT116 inhibition rate/%
Procedure, shortened: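 Growth inhibition is read by CCK-8 (1:10 dilution) after 72 h of compound exposure. HCT-116 cells grow in McCoy's 5A containing 10% newborn bovine serum at 2000 cells/well, with 1‰ DMSO as vehicle control.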

CCCC[C@H](CC(=O)NO)C(=O)N1CC2(CC2)C[C@H]1C(=O)Nc1ccc(N2CCOCC2)cc1 [Example 43, (S)-5-((R)-2-(2-(hydroxyamino)-2-oxoethyl)hexanoyl)-N-(4-morpholinophenyl)-5-spiro[2.4]heptane-6-carboxamide]
Anti-bacterial activity (MIC), strain EFA 15-1 ([1]; clinical isolate EFA 15-1): > 32 µg/mL
Anti-bacterial activity (MIC), strain EFA 15-2 ([1]; clinical isolate EFA 15-2): > 32 µg/mL
Anti-bacterial activity (MIC), strain EFA 15-3 ([1]; clinical isolate EFA 15-3): > 32 µg/mL
Anti-bacterial activity (MIC), strain EFA 15-4 ([1]; clinical isolate EFA 15-4): > 32 µg/mL
Anti-bacterial activity (MIC), strain EFA 15-5 ([1]; clinical isolate EFA 15-5): > 32 µg/mL
Anti-bacterial activity (MIC), strain EFA 15-6 ([1]; clinical isolate EFA 15-6): > 32 µg/mL
Anti-bacterial activity (MIC), strain EFA 15-9 ([1]; clinical isolate EFA 15-9): > 32 µg/mL
Anti-bacterial activity (MIC), strain EFM 15-1 ([2]; clinical isolate EFM 15-1): > 32 µg/mL
Anti-bacterial activity (MIC), strain EFM 15-2 ([2]; clinical isolate EFM 15-2): > 32 µg/mL
Anti-bacterial activity (MIC), strain EFM 15-3 ([2]; clinical isolate EFM 15-3): > 32 µg/mL
Anti-bacterial activity (MIC), strain EFM 15-4 ([2]; clinical isolate EFM 15-4): > 32 µg/mL
Anti-bacterial activity (MIC), strain EFM 15-5 ([2]; clinical isolate EFM 15-5): 1 µg/mL
Anti-bacterial activity (MIC), strain EFM 15-6 ([2]; clinical isolate EFM 15-6): 2 µg/mL
Anti-bacterial activity (MIC), strain ECO+ 15-1 ([3]; clinical isolate ECO+ 15-1): 1 µg/mL
Anti-bacterial activity (MIC), strain ECO+ 15-2 ([3]; clinical isolate ECO+ 15-2): > 32 µg/mL
Anti-bacterial activity (MIC), strain ECO+ 15-3 ([3]; clinical isolate ECO+ 15-3): > 32 µg/mL
Anti-bacterial activity (MIC), strain ECO+ 15-4 ([3]; clinical isolate ECO+ 15-4): 1 µg/mL
Anti-bacterial activity (MIC), strain ECO− 15-1 ([3]; clinical isolate ECO− 15-1): > 32 µg/mL
Anti-bacterial activity (MIC), strain ECO− 15-2 ([3]; clinical isolate ECO− 15-2): > 32 µg/mL
Anti-bacterial activity (MIC), strain ECO− 15-3 ([3]; clinical isolate ECO− 15-3): > 32 µg/mL
Anti-bacterial activity (MIC), strain ECO− 15-4 ([3]; clinical isolate ECO− 15-4): > 32 µg/mL
Anti-bacterial activity (MIC), strain BCA 14-1 ([4]; clinical isolate BCA 14-1): 2 µg/mL
Anti-bacterial activity (MIC), strain BCA 14-4 ([4]; clinical isolate BCA 14-4): 2 µg/mL
Anti-bacterial activity (MIC), strain BCA 14-5 ([4]; clinical isolate BCA 14-5): 1 µg/mL
Anti-bacterial activity (MIC), strain BCA 14-6 ([4]; clinical isolate BCA 14-6): 1 µg/mL
Anti-bacterial activity (MIC), strain BCA 14-7 ([4]; clinical isolate BCA 14-7): 2 µg/mL
Anti-bacterial activity (MIC), strain BCA 14-8 ([4]; clinical isolate BCA 14-8): 2 µg/mL
Anti-bacterial activity (MIC), strain BCA 14-10 ([4]; clinical isolate BCA 14-10): 2 µg/mL
Anti-bacterial activity (MIC), strain SPN 16-2 ([5]; clinical isolate SPN 16-2): 1 µg/mL
Anti-bacterial activity (MIC), strain SPN 16-4 ([5]; clinical isolate SPN 16-4): 1 µg/mL
Anti-bacterial activity (MIC), strain MRSA 15-1 ([6]; clinical isolate MRSA 15-1): 1 µg/mL
Anti-bacterial activity (MIC), strain MRSA 15-2 ([6]; clinical isolate MRSA 15-2): 4 µg/mL
Anti-bacterial activity (MIC), strain MRSA 15-3 ([6]; clinical isolate MRSA 15-3): 1 µg/mL
Anti-bacterial activity (MIC), strain MRSA 15-4 ([6]; clinical isolate MRSA 15-4): 4 µg/mL
Anti-bacterial activity (MIC), strain MRSE 15-1 ([7]; clinical isolate MRSE 15-1): 1 µg/mL
Anti-bacterial activity (MIC), strain MRSE 15-2 ([7]; clinical isolate MRSE 15-2): 4 µg/mL
Anti-bacterial activity (MIC), strain MRSE 15-3 ([7]; clinical isolate MRSE 15-3): 4 µg/mL
Anti-bacterial activity (MIC), strain MRSE 15-7 ([7]; clinical isolate MRSE 15-7): 1 µg/mL
Anti-bacterial activity (MIC), strain MSSA 15-3 ([8]; clinical isolate MSSA 15-3): 4 µg/mL
Anti-bacterial activity (MIC), strain MSSA 15-4 ([8]; clinical isolate MSSA 15-4): 4 µg/mL
Anti-bacterial activity (MIC), strain MSSA 15-5 ([8]; clinical isolate MSSA 15-5): 1 µg/mL
Anti-bacterial activity (MIC), strain MSSA 15-6 ([8]; clinical isolate MSSA 15-6): 4 µg/mL
Anti-bacterial activity (MIC), strain MSSE 15-3 ([9]; clinical isolate MSSE 15-3): 1 µg/mL
Anti-bacterial activity (MIC), strain MSSE 15-4 ([9]; clinical isolate MSSE 15-4): 1 µg/mL
Anti-bacterial activity (MIC), strain MSSE 15-5 ([9]; clinical isolate MSSE 15-5): 1 µg/mL
Anti-bacterial activity (MIC), strain MSSE 15-6 ([9]; clinical isolate MSSE 15-6): 1 µg/mL
inhibition at 30 µM [10]: 6%
